Test results published in patent publication US6300321A, “Compounds, preparation and use for transferring nucleic acids into cells” (Aventis Pharma S.A., priority 1997, dated 2001).

Tests used:
[1] = system: NIH3T3, HepG2 and HeLa cells; assay: In vitro transfection in the absence and in the presence of serum proteins; type: cell-based; conditions: with versus without serum proteins; FIG. 3
Method: FIG. 3: Measurement of the in vitro efficiency of transfection of compound 1 according to the invention into NIH3T3, HepG2 and HeLa cells, in the absence (white bars) and in the presence (black bars) of serum proteins and in comparison with its amine-containing homologue (RPR120535).
(§1) The measurements were carried out at different charge ratios which are plotted on the x-axis. The expression of luciferase is plotted on the y-axis and is expressed in RLU (Relative Light Unit) per well.
(§2) The nucleic acid used is the plasmid pXL2774 (WO 97/10343) comprising the gene encoding luciferase under the control of the human cytomegalovirus (CMV) promoter.
The nucleic acid solutions are diluted to 20 μg/ml in physiological saline (0.15 M sodium chloride NaCl). […]
The cells are washed with twice 500 μl of medium free of serum proteins and grown again either in serum-free medium (transfection in the absence of serum), or in complete medium (transfection in the presence of serum). […] When the cells are transfected in the absence of serum, the growth medium is supplemented 2 hours after transfection with the appropriate quantity of serum.
The transfection efficiency is evaluated 48 hours after the transfection by measuring the expression of luciferase according to the recommendations given for the use of the Promega kit [Luciferase Assay System]. […]

HepG2 cells [2] = assay: In vitro transfection of luciferase plasmid pXL2774; type: cell-based
Method: (§3) FIG. 2: Measurement of the in vitro efficiency of transfection of compound 1 according to the invention into NIH3T3, HepG2 and HeLa cells, in the absence of serum proteins and in comparison with its amine-containing homologue (RPR120535).
as §1, §2
(§4) The nucleic acid solutions are diluted to 20 μg/ml in physiological saline (0.15 M sodium chloride NaCl).
(§5) The products described in the invention are dissolved in water at a concentration varying from 60 to 240 μM and mixed volume for volume with the DNA solution; the final saline concentration is 75 mM.
(§6) The cells are cultured under appropriate conditions in 24-well microplates (2 cm^2 /well) and are transfected while they are in the exponential growth phase and at 50-70% confluence.
(§7) The cells are washed with twice 500 μl of medium free of serum proteins and grown again either in serum-free medium (transfection in the absence of serum), or in complete medium (transfection in the presence of serum). 50 μl of transfectant mixture [i.e. 0.5 μg DNA/well] are added to the cells [3 wells/condition DNA vector]. When the cells are transfected in the absence of serum, the growth medium is supplemented 2 hours after transfection with the appropriate quantity of serum.
(§8) The transfection efficiency is evaluated 48 hours after the transfection by measuring the expression of luciferase according to the recommendations given for the use of the Promega kit [Luciferase Assay System]. The toxicity of the transfectant mixtures is estimated by a measurement of the protein concentrations in the cell lysates.
(§9) Compound 1 was used in comparison with the cationic lipid RPR120535 (TFA salt) [described in patent application WO 97/18185 incorporated into the present application by way of reference] as DNA vector to transfect three different cell lines: NIH3T3 cells, HepG2 cells and HeLa cells. […] The transfection efficiency for compound 1 and for the cationic lipid for comparison in the three cell types is represented in FIG. 2, for nmol of compound/μg of DNA ratios of between 3 and 12.

NIH3T3 cells [3] = assay: as above; type: cell-based; conditions: FIG. 2, absence of serum proteins, 48 hours
Method: as §3, §1, §2, §4, §5, §6, §7, §8, §9

HeLa cells [4] = assay: as above; type: cell-based
Method: as §3, §1, §2, §4, §5, §6, §7, §8, §9

HepG2 cells [5] = assay: Toxicity of the transfectant mixtures (protein concentrations in the cell lysates); type: cell-based
Method: as §6, §7, §8, §9

NIH3T3 cells [6] = assay: as above; type: cell-based
Method: as §6, §7, §8, §9

HeLa cells [7] = assay: as above; type: cell-based
Method: as §6, §7, §8, §9

DNA = assay: Physicochemical phase (A, B or C) of the nucleolipid complexes as a function of the charge ratio; conditions: micellar form and in combination with a neutral colipid (DOPE and cholesterol)
Method: FIG. 8: Tables indicating the physicochemical phase (phase A, B or C) in which exist the nucleolipid complexes formed with compound 2 in comparison with its amine-containing analogue, as a function of the charge ratio.
The determination of the phases was carried out for compound 2 and for its amine-containing homologue in micellar form and in combination with a neutral colipid (DOPE and cholesterol).
The nucleic acid used is the plasmid pXL3031, as described in the preceding example.
The complexes are prepared at concentrations of 0.25 mg of DNA/ml with an appropriate quantity of lipid as defined in the present invention in the desired charge ratio. The complex is prepared in a medium containing 5% glucose and a 20 mM solution of sodium chloride. 50 μl of nucleolipid complex are then diluted 20-fold in 950 μl of solution containing 5% glucose and a 20 mM solution of sodium chloride.
The size of the complexes was determined by measuring the hydrodynamic diameter by dynamic light scattering with the aid of a Coulter N4+ apparatus.
The complexes formed are negatively charged overall, which makes the crossing of cell membranes difficult. It is thus preferable for the values not to be situated in this region in order to transfect the DNA.
Phase B for which the DNA is completely saturated with the cationic lipid and the complexes are neutral or slightly positive overall. The ionic repulsions being […], this phase is unstable. A phenomenon of "cross-linking" may occur, leading to precipitation of the complexes. The complexes in this state cannot therefore be used as injection.
Phase C for which the DNA is oversaturated with the lipid and the complexes are therefore positive overall. […] The complexes in phase C are therefore particularly suitable for use for the transfer of nucleic acids into cells.
The tables in FIGS. 8, 9, 10 and 11 compare the phases as a function of the charge ratios between the compounds of the invention and their amine-containing analogues, that is to say the cationic lipids whose amidine or guanidine function is replaced by an amino function. It is observed that phase B is shifted towards much lower charge ratios. Thus, the incorporation of amidine functions into the cationic head contributes to the increase in the affinity of the compounds for DNA. This constitutes an important property of the compounds of the invention because the complexes which they form with DNA may be used in phase C without as a result being at excessively high charge ratios, with the beneficial effects which result therefrom on toxicity.

[8] = FIG. 2, absence of serum proteins, 48 hours

For `CCCCCCCCCCCCCCCCCCN(CCCCCCCCCCCCCCCCCC)C(=O)CNC(=O)CNCCCNCCCCNCCCNC(=N)N` [compound 1, N-dioctadecylcarbamoylmethyl-2-{3-[4-(3-guanidinopropylamino)butylamino]propylamino}acetamide], the “transfection levels with or without serum proteins” value [1] was “the transfection levels with or without serum proteins are the same”, the “ratio of cationic lipid to DNA giving the maximum transfection efficiency” value (shortened to “ratio of cationic lipid”) (HepG2 cells [2]; [8]) was 9 nanomoles cationic lipid/μg of DNA and the “luciferase expression level relative to the product tested in comparison (RPR120535)” value (HepG2 cells [2]; absence of serum) was 2 to 4 times higher. For the same compound, the “ratio of cationic lipid” value (NIH3T3 cells [3]) was 6 nanomoles cationic lipid/μg of DNA, the “ratio of cationic lipid” value (HeLa cells [4]; [8]) was 9 nanomoles cationic lipid/μg of DNA and the “luciferase expression level relative to the product tested in comparison (RPR120535)” value (HeLa cells [4]; absence of serum) was 2 to 4 times higher. The “toxicity of the transfectant mixture” value (HepG2 cells [5]) was “no significant toxicity was detected”, the “toxicity of the transfectant mixture” value (NIH3T3 cells [6]) was “no significant toxicity was detected” and the “toxicity of the transfectant mixture” value (HeLa cells [7]) was “no significant toxicity was detected”.
With `CCCCCCCCCCCCCCCCCCN(CCCCCCCCCCCCCCCCCC)C(=O)CNC(=O)CNCCCNCCCCNCCCN` [RPR120535, reference compound] the “transfection levels with or without serum proteins” value [1] was “a strong inhibition is observed due to the presence of the serum proteins”.
In the case of `CCCCCCCCCCCCCCN(CCCCCCCCCCCCCC)C(=O)CNC(=O)CNCCCN(CCCCN(CCCNC(=N)N)CCCNC(=N)N)CCCNC(=N)N` [compound 6, 2-{3-[{4-[bis(3-guanidinopropyl)amino]butyl}-(3-guanidinopropyl)amino]-propylamino}-N-ditetradecylcarbamoylmethylacetamide], the “shift of the unstable phase B in comparison with the amine-containing analogue” value (“shift … with the amine-containing analogue” for short) (DNA) is reported as “a shift is observed from the nstable phase B towards lower charge ratios”.
For `CCCCCCCCCCCCCCCCCCN(CCCCCCCCCCCCCCCCCC)C(=O)CNCCN(CCNC(=N)N)CCNC(=N)N` [compound 2, 2-{2-[bis(2-guanidinoethyl)amino]ethylamino}-N,N-dioctadecylacetamide], the “shift … with the amine-containing analogue” value (DNA) was “a shift is observed from the unstable phase B towards lower charge ratios”.
For `CCCCCCCCCCCCCCN(CCCCCCCCCCCCCC)C(=O)CNC(=O)CN(CCCCNCCCNC(=N)N)CCCNC(=N)N` [compound 5, N-ditetradecylcarbamoylmethyl-2-{(3-guanidinopropyl)-[4-(3-guanidinopropylamino)butyl]amino}acetamide], the “shift … with the amine-containing analogue” value (DNA) was “a shift is observed from the unstable phase B towards lower charge ratios”.
With `CCCCCCCCCCCCCCN(CCCCCCCCCCCCCC)C(=O)CNC(=O)CNCCCNCCCCNCCCNC(=N)N` [compound 3, N-ditetradecylcarbamoylmethyl-2-{3-[4-(3-guanidinopropylamino)butylamino]propylamino}acetamide] the “shift … with the amine-containing analogue” value (DNA) was “a shift is observed from the unstable phase B towards lower charge ratios”.
